Data on 14 compounds can be found in paper PMC9510750, “Design, synthesis and biological evaluation of novel O-substituted tryptanthrin oxime derivatives as c-Jun N-terminal kinase inhibitors” (Frontiers in Pharmacology, 2022).

Data set [1] deals with NF-κB/AP-1 transcriptional activity in THP-1Blue cells. More on the design: method as in Schepetkin et al., 2019. Particulars: LPS-stimulated; ref Schepetkin et al., 2019; cited from earlier work.
The test system of data set [2] is IL-6 production in MonoMac-6 cells. More on the design: method as in Schepetkin et al., 2019. Particulars: LPS-stimulated; ref Schepetkin et al., 2019; cited from earlier work.
Data set [3] addresses T1, JNK3 (Homo sapiens, UniProt P53779).
T1 construct: purchased Eurofins Pharma Discovery (KINOMEscan platform)
Put plainly: KINOMEscan ATP site-dependent binding assay, JNK3. Particulars: for Kd: KINOMEscan, mixture of E/Z isomers, read-out: Binding affinity JNK3 Kd. As to the method: (§1) Selected compounds were submitted for dissociation constant (Kd) determination using the KINOMEscan platform (Eurofins Pharma Discovery, San Diego, CA, United States), as described previously ([Karaman et al., 2008]). […] Primary screening at fixed concentrations of compounds was performed in duplicate.

The subject of data set [4] is IL-6 production in MonoMac-6 cells. Put plainly: LPS-induced IL-6 production in MonoMac-6 cells (ELISA). The format is cell-based. Particulars: Homo sapiens, MONO-MAC-6; LPS 250 ng/ml, 24 h. As to the method:
(§2) All cells were cultured at 37°C in a humidified atmosphere containing 5% CO2. THP-1Blue cells obtained from InvivoGen (San Diego, CA, United States) were cultured in RPMI 1640 medium (Mediatech Inc., Herndon, VA, United States) supplemented with 10% (v/v) fetal bovine serum (FBS), 4.5 g/L glucose, 100 μg/ml streptomycin, 100 U/mL penicillin, 100 μg/ml phleomycin (Zeocin), and 10 μg/ml blasticidin S. Human monocyte-macrophage MonoMac-6 cells (Deutsche Sammlung von Mikroorganismen und Zellkulturen GmbH, Braunschweig, Germany) were grown in RPMI 1640 medium supplemented with 10% (v/v) FBS, 10 μg/ml bovine insulin, 100 μg/ml streptomycin, and 100 U/mL penicillin.
(§3) Human IL-6 ELISA kit (BD Biosciences, San Jose, CA, United States) was used to confirm the inhibitory effect of selected compounds on IL-6 production. MonoMac-6 cells were plated in 96-well plates at a density of 2 × 10^5 cells/well in culture medium supplemented with 3% (v/v) endotoxin-free FBS. Cells were pretreated with test compound or DMSO (1% final concentration) for 30 min, followed by addition of 250 ng/ml LPS for 24 h. IC50 values for IL-6 production were calculated by plotting the percentage inhibition against the logarithm of inhibitor concentration (at least five points). Multiplex human cytokine ELISA kit from Anogen (Mississauga, ON, Canada) was used to evaluate various cytokines (IL-1α, IL-1β, IL-6, GM-CSF, MCP-1, IFNγ, and TNF) in the supernatants of MonoMac-6 cells.
On the technique in general: ELISA stands for enzyme-linked immunosorbent assay.

Data set [5] concerns NF-κB/AP-1 transcriptional activity in THP-1Blue cells. Put plainly: LPS-induced NF-κB/AP-1 alkaline phosphatase reporter assay in THP-1Blue cells. The format is cell-based. Particulars: Homo sapiens; LPS 250 ng/ml, 24 h. The procedure: as §2
Activation of AP-1/NF-κB was measured using an alkaline phosphatase reporter gene assay in THP1-Blue cells. Human monocytic THP-1Blue cells are stably transfected with a secreted embryonic alkaline phosphatase gene that is under the control of a promoter inducible by AP-1/NF-κB. THP-1Blue cells (2 × 10^5 cells/well) were pretreated with test compound or DMSO (1% final concentration) for 30 min, followed by addition of 250 ng/ml LPS (from Escherichia coli K-235; Sigma Chemical Co., St. Louis, MO, United States) for 24 h, and alkaline phosphatase activity was measured in cell supernatants using QUANTI-Blue mix (InvivoGen) with absorbance at 655 nm and compared with positive control samples (LPS). The concentrations of compound that caused 50% inhibition of the AP-1/NF-κB reporter activity (IC50) were calculated.

Data set [6] concerns the target T2, JNK2 (Homo sapiens, UniProt P45984).
T2 construct: purchased Eurofins Pharma Discovery (KINOMEscan platform)
Put plainly: KINOMEscan ATP site-dependent binding assay, JNK2. Particulars: mixture of E/Z isomers, read-out: Binding affinity JNK2 Kd. As to the method:
as §1

Data set [7] has as its target T3, JNK1 (Homo sapiens, UniProt P45983).
T3 construct: purchased Eurofins Pharma Discovery (KINOMEscan platform)
Put plainly: KINOMEscan ATP site-dependent binding assay, JNK1. Particulars: mixture of E/Z isomers, read-out: Binding affinity JNK1 Kd. As to the method:
as §1

Data set [8] in a line: Solubility in DMSO for the binding affinity assay. Particulars: insufficiently soluble in DMSO for the binding affinity assay. The format is physicochemical. The text has this:
TABLE 1 Binding affinity (Kd) of compounds 1a-o and their inhibitory effect on LPS-induced NF-κB/AP-1 transcriptional activity in THP-1Blue cells and IL-6 production in MonoMac-6 cells. | column: Binding affinity / JNK1

Data set [9] concerns proinflammatory cytokine production in MonoMac-6 cells. Put plainly: Multiplex human cytokine ELISA, LPS-stimulated MonoMac-6 cells. Particulars: 10 μM, LPS 250 ng/ml 24 h. Format: cell-based. As to the method: as §3
In data set [10] the test system is c-Jun (Ser63) phosphorylation in MonoMac-6 cells. Put plainly: LPS-induced c-Jun (Ser63) phosphorylation, Western blotting. Format: cell-based, human. Particulars: 30 min pretreatment, LPS 250 ng/ml 30 min, phospho-c-Jun/total c-Jun. The procedure: MonoMac-6 monocytic cells (10^7 cells) were incubated with different concentrations of compound 1j (final DMSO concentration of 0.5%) for 30 min at 37°C and then treated with LPS (250 ng/ml) or buffer for another 30 min at 37°C. Cells were washed twice with ice-cold phosphate buffer solution (pH 7.4), and cell lysates were prepared using lysis buffer (Cell Signaling Technology, Danvers, MA, United States). Cell lysates were separated on ExpressPlus 10% PAGE Gels (GenScript, Piscataway, NJ, United States) using TRIS-MOPS running buffer and transferred to nitrocellulose membranes. The blots were blocked overnight at 4°C in TRIS buffer (pH 7.4) + 0.1% Tween-20 (TBST) + 2.5% bovine serum albumin and probed with antibodies against phospho-c-Jun (Ser63) (Cell Signaling Technology), followed by horseradish peroxidase-conjugated secondary antibody (Cell Signaling Technology), and the blots were developed using Super-Signal West Femto chemiluminescent substrate (Thermo Fisher Scientific) and visualized with a FluorChem FC2 imaging system (Alpha Innotech Corporation, San Leandro, CA, United States). For measurement of total c-Jun signal, we stripped and reprobed the same Western blots that were used for phospho-c-Jun blots. […] Quantitation of the luminescent signals were performed using AlphaView software.
A general note: A western blot detects proteins with antibodies after separation by electrophoresis.

Read-outs that look alike come from different tables or passages of the source. Bounds are passed on as bounds.

T1 sequence (P53779 whole entry): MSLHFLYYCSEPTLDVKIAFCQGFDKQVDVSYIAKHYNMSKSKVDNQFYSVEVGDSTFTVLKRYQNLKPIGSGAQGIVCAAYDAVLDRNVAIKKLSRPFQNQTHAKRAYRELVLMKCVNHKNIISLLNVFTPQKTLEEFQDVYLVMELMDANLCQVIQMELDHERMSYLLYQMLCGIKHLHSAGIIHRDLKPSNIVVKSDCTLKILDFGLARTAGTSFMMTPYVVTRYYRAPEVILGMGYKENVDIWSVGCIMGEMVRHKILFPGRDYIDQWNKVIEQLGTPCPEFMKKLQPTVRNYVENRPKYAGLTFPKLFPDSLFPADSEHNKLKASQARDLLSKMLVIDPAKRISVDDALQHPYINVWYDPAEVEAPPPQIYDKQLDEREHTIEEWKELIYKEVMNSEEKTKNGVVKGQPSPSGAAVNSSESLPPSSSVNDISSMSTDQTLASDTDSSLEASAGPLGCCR
T3 sequence (P45983 whole entry): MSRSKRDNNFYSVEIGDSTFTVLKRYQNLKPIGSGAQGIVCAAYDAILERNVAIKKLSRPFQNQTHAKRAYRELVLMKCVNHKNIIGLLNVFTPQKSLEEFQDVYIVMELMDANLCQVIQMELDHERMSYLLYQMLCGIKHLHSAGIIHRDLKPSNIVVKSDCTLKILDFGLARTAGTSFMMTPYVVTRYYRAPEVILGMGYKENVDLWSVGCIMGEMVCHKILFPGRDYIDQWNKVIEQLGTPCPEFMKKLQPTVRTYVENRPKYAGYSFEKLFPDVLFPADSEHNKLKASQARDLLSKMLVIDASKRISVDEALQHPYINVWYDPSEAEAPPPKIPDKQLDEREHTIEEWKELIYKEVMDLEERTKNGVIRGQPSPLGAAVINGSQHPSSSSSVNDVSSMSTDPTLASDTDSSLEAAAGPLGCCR
T2 sequence (P45984 whole entry): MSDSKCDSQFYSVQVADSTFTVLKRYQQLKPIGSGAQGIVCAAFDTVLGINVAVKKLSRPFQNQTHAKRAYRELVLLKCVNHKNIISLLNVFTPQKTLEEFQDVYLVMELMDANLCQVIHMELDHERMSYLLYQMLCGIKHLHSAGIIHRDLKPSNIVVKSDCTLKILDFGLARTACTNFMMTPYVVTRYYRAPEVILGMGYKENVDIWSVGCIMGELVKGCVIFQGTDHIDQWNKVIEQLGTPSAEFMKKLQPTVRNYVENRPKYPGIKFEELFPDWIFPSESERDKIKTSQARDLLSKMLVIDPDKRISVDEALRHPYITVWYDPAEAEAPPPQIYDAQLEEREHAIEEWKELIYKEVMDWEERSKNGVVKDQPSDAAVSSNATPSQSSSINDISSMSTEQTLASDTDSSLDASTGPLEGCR

As to `O=c1c2ccccc2nc2n1-c1ccccc1/C2=N\O` [TRYP-Ox], the figures for the concentration for half-maximal inhibition (IC50) in data set [1] and in data set [2] were 3.8 ± 1.1 µM and 3.2 ± 1.2 µM, respectively.
For `O=c1c2ccccc2nc2n1-c1ccccc1C2=NOCc1c(F)c(F)c(F)c(F)c1F` [Compound 1g, 6-(((pentafluorophenyl)methoxy)imino)indolo[2,1-b]quinazolin-12(6H)-one], the melting point – broadly, the temperature of the solid-liquid transition – was found to be 183 °C. The Kd (commonly the free concentration of one partner at which half of the binding sites on the other are occupied at equilibrium, for simple one-to-one binding) in data set [3] was no less than 30 µM. In addition, in [4], the IC50 – broadly, the concentration that inhibits the measured activity by half – was no less than 50 µM. In data set [5], the concentration for half-maximal inhibition (IC50) is no less than 50 µM.
For `C=CCON=C1c2ccccc2-n2c1nc1ccccc1c2=O` [Compound 1c, 6-((allyloxy)imino)indolo[2,1-b]quinazolin-12(6H)-one], the melting point came to 163 °C. The Kd in [6] amounted to 4.1 ± 0.1 µM. Besides, in [3], the Kd is 0.85 ± 0.01 µM. This compound also had an IC50 in data set [4] of no less than 50 µM. Besides, the Kd in data set [7] stood at 3.6 ± 0.7 µM. The compound further showed an IC50 in data set [5] of 18.9 ± 1.8 µM.
In turn, `O=c1c2ccccc2nc2n1-c1ccccc1C2=NOCc1ccc([N+](=O)[O-])cc1` [Compound 1h, 6-(((4-nitrobenzyl)oxy)imino)indolo[2,1-b]quinazolin-12(6H)-one] showed a melting point of 219 °C. For the same compound, in data set [4], the IC50 was no less than 50 µM. Moreover, the Solubility entry in [8] was “Poor solubility ^b”. In data set [5], this compound came in with an IC50 of no less than 50 µM.
`NC(=O)NN=C1c2ccccc2-n2c1nc1ccccc1c2=O` [Compound 1o, 2-(12-oxoindolo[2,1-b]quinazolin-6(12H)-ylidene)hydrazinecarboxamide] came in with a melting point of 266 °C. Moreover, 6.6 ± 1.2 µM corresponded to half-maximal inhibition in data set [4] (IC50). Also, the IC50 in data set [5] turned out to be 3.3 ± 0.1 µM.
The compound `CC(C)(C)ON=C1c2ccccc2-n2c1nc1ccccc1c2=O` [Compound 1d, 6-(tert-butoxyimino)indolo[2,1-b]quinazolin-12(6H)-one] had a melting point of 229 °C. In data set [6], the Kd came to 12 ± 1.4 µM. Moreover, the Kd in data set [3] worked out at 2.3 ± 0.3 µM. The compound further returned an IC50 in data set [4] of no less than 50 µM. In data set [7], the Kd turned out to be 9.3 ± 0.5 µM. The compound also showed a half-inhibitory concentration (IC50) in data set [5] of no less than 50 µM.
For the compound `NN=C1c2ccccc2-n2c1nc1ccccc1c2=O` [Compound 1m, 6-hydrazonoindolo[2,1-b]quinazolin-12(6H)-one], the melting point was > 400 °C (dec.). Moreover, in [4], the IC50 was no less than 50 µM. Also, in data set [8], the Solubility entry is “Poor solubility ^b”. This compound yielded an IC50 in [5] of no less than 50 µM.
As to `N#CCON=C1c2ccccc2-n2c1nc1ccccc1c2=O` [Compound 1e, 2-(((12-oxoindolo[2,1-b]quinazolin-6(12H)-ylidene)amino)oxy)acetonitrile], the melting point turned out to be 224 °C. Besides, the Kd in data set [6] came to 17.5 ± 2.1 µM. The Kd in data set [3] was 1.5 ± 0.6 µM. Also, in data set [3] (ratio of binding affinities), the “JNK-3 selectivity over JNK-1” value is given as greater than 10 fold and the “JNK-3 selectivity over JNK-2” value is reported as greater than 10 fold. In addition, the IC50 in data set [4] is no less than 50 µM. Also, the Kd in data set [7] stood at 19.5 ± 3.5 µM. The IC50 in data set [5] is no less than 50 µM.
In turn, `CC(=O)ON=C1c2ccccc2-n2c1nc1ccccc1c2=O` [Compound 1j, 6-(acetoxyimino)indolo[2,1-b]quinazolin-12(6H)-one] showed a melting point of 262 °C. In [9] (vs DMSO-treated control), the “Secretion of GM-CSF” value was “completely inhibited”, the “Secretion of IL-1α” value is listed as “completely inhibited”, the “Secretion of IL-1β” value was “completely inhibited” and the “Secretion of IL-6” value is “completely inhibited”. In addition, in [9] (vs DMSO-treated control), the “Secretion of MCP-1” value was “completely inhibited” and the “Secretion of TNF” value is recorded as “completely inhibited”. For the same compound, in data set [9] (low production of this cytokine after LPS), the “Effect on IFN-γ production” value was “inconclusive”. Moreover, the “Inhibition of LPS-induced c-Jun (S63) phosphorylation” value in data set [10] is “dose-dependent inhibition”. Besides, the Kd in data set [6] is 0.49 ± 0.01 µM. The Kd in [3] came out at 0.18 ± 0.04 µM. The IC50 in data set [4] is 1.7 ± 0.1 µM. The Kd in data set [7] worked out at 0.34 ± 0.04 µM. For the same compound, in data set [5], the midpoint of inhibition, the IC50, lay at 0.8 ± 0.2 µM.
With `CCON=C1c2ccccc2-n2c1nc1ccccc1c2=O` [Compound 1b, 6-(ethoxyimino)indolo[2,1-b]quinazolin-12(6H)-one], the melting point was 117 °C. Further, the dissociation constant (Kd) in data set [6] worked out at 5.4 ± 0.6 µM. Also, the Kd in data set [3] came to 1.2 ± 0.4 µM. In data set [4], this compound returned an IC50 of no less than 50 µM. The Kd in data set [7] is 3.2 ± 1.2 µM. Moreover, the IC50 in data set [5] is no less than 50 µM.
Take `O=c1c2ccccc2nc2n1-c1ccccc1C2=NOCc1ccccc1` [Compound 1f, 6-((benzyloxy)imino)indolo[2,1-b]quinazolin-12(6H)-one]: the melting point was found to be 206 °C. For the same compound, the Kd in data set [3] was no less than 30 µM. In [4], this compound came in with a concentration for half-maximal inhibition (IC50) of no less than 50 µM. In [5], this compound had an IC50 of no less than 50 µM.
The compound `CON=C1c2ccccc2-n2c1nc1ccccc1c2=O` [Compound 1a, 6-(methoxyimino)indolo[2,1-b]quinazolin-12(6H)-one] returned a melting point of 218 °C. The Kd in data set [6] was determined as 5.6 ± 0.4 µM. For the same compound, the Kd in data set [3] is 1.4 ± 0.2 µM. This compound also came in with an IC50 in data set [4] of 23.5 ± 1.8 µM. The Kd in data set [7] stood at 3.1 ± 0.8 µM. In data set [5], this compound showed an IC50 of 20.8 ± 5.3 µM.
Take `O=c1c2ccccc2nc2n1-c1ccccc1C2=NOCc1ccccn1` [Compound 1i, 6-((pyridin-2-ylmethoxy)imino)indolo[2,1-b]quinazolin-12(6H)-one]: the melting point was in the range of 199 to 200 °C. In addition, in data set [6], the dissociation constant Kd stood at 3.9 ± 0.4 µM. In addition, in data set [3], the equilibrium dissociation constant (Kd) stood at 1.5 ± 0.1 µM. This compound yielded a concentration for half-maximal inhibition (IC50) in data set [4] of no less than 50 µM. Besides, the Kd in data set [7] was determined as 4 ± 0.9 µM. In addition, the IC50 in data set [5] is no less than 50 µM.
Turning to `O=c1c2ccccc2nc2n1-c1ccccc1C2=NNc1ccccc1` [Compound 1n, 6-(2-phenylhydrazono)indolo[2,1-b]quinazolin-12(6H)-one], the melting point came to 223 °C. Moreover, the IC50 in [4] is no less than 50 µM. In data set [8], the Solubility entry was “Poor solubility ^b”. Further, in data set [5], the IC50 is no less than 50 µM.
